From ChEMBL document CHEMBL1129248, “7-[3-(1-piperidinyl)propoxy]chromenones as potential atypical antipsychotics” (1996)

Assays:
Mus musculus [1] = experiment: (§1) Inhibition of apomorphine-induced climbing behavior in mice, after Intraperitoneal administration; assay type: functional; conditions: ip
Rattus norvegicus [2] = organism: Rattus norvegicus; experiment: Dose required to induce 50% maximum catalepsy in rat
Rattus norvegicus [3] = experiment: Inhibition of apomorphine-induced stereotypy in Rat, after peroral administration; assay type: functional; conditions: po
Mus musculus [4] = experiment: Inhibition of apomorphine-induced climbing behavior in mice, after peroral administration; assay type: functional; conditions: po
[5] = Inhibition of apomorphine-induced hyperactivity in mice after peroral administration; assay type: functional; conditions: Mus musculus, po
Rattus norvegicus [6] = experiment: Percent inhibition of apomorphine-induced stereotypy in rat after an intraperitoneal dose of 50 mg/kg; assay type: functional; conditions: ip
[7] = Inhibition of apomorphine-induced climbing behavior in mice, after intraperitoneal administration; assay type: functional; conditions: Mus musculus, ip
Mus musculus [8] = experiment: Inhibition of apomorphine-induced Hyperactivity in mice, after Intraperitoneal administration; assay type: functional; conditions: ip
[9] = Inhibition of apomorphine-induced hyperactivity behavior in mice, after peroral administration; assay type: functional; conditions: Mus musculus, po
Rattus norvegicus [10] = experiment: Inhibition of apomorphine-induced stereotypy in rat, after peroral administration; assay type: functional; conditions: po
Rattus norvegicus [11] = experiment: Dose required to induce 50% maximum catalepsy in rat administered perorally; assay type: functional; conditions: po
Rattus norvegicus [12] = experiment: Inhibition of apomorphine-induced stereotypy in rat after peroral administration; assay type: functional; conditions: po
Rattus norvegicus [13] = organism: Rattus norvegicus; experiment: Dose required to induce 50% maximum catalepsy in rat; assay type: functional
[14] = as §1; assay type: functional; conditions: Mus musculus, ip
Mus musculus [15] = experiment: Inhibition of apomorphine-induced hyperactivity in mice, after peroral administration; conditions: po
Mus musculus [16] = experiment: Inhibition of apomorphine-induced hyperactivity in mice, after peroral administration; assay type: functional; conditions: po

| Compound | ED50 (Mus musculus [4]) [mg/kg] | ED50 [5] [mg/kg] | inhibition in vivo at 50 mg/kg (Rattus norvegicus [6]) [%] | ED50 [7] [mg/kg] | ED50 (Mus musculus [8]) [mg/kg] | other results |
| --- | --- | --- | --- | --- | --- | --- |
| Cc1nc2n(c(=O)c1CCN1CCC(c3noc4cc(F)ccc34)CC1)CCCC2 [RISPERIDONE] | 0.74 | – | – | – | – | ED50 (Mus musculus [1]): 0.2 mg/kg; ED50 (Rattus norvegicus [2]): 5 mg/kg; ED50 (Rattus norvegicus [3]): 3.8 mg/kg |
| CC1CN(Cc2ccccc2)CCN1CCCC(O)c1ccc(F)cc1 (configuration not stated) | > 200 | > 200 | 16 | > 50 | 35 | – |
| O=C(c1ccc(F)cc1)C1CCN(CCCOc2ccc3c(=O)c(CO)coc3c2)CC1 | – | – | – | – | – | ED50 [9]: 1.32 mg/kg; ED50 (Rattus norvegicus [10]): 35.9 mg/kg; ED50 (Rattus norvegicus [11]): 14 mg/kg |
| CN1CCN(C2=Nc3cc(Cl)ccc3Nc3ccccc32)CC1 [CLOZAPINE] | – | – | – | – | – | ED50 (Rattus norvegicus [12]): 85.3 mg/kg; ED50 (Rattus norvegicus [13]): 107 mg/kg; ED50 [14]: 7.7 mg/kg; ED50 (Mus musculus [15]): 11 mg/kg |
| O=C(CCCN1CCC(O)(c2ccc(Cl)cc2)CC1)c1ccc(F)cc1 [HALOPERIDOL] | – | – | – | – | – | ED50 (Rattus norvegicus [13]): 2.5 mg/kg; ED50 [14]: 0.21 mg/kg; ED50 (Mus musculus [15]): 0.56 mg/kg; ED50 (Rattus norvegicus [3]): 1.95 mg/kg |
| CC1CN(Cc2ccc(F)cc2)CCN1CCCC(O)c1ccc(F)cc1 (configuration not stated) | > 200 | > 200 | 48 | 30 | 50 | – |
| CCN1CCC[C@H]1CNC(=O)c1c(OC)ccc(Br)c1OC [REMOXIPRIDE] | – | – | – | 5.2 | – | ED50 [9]: 11.1 mg/kg; ED50 (Rattus norvegicus [10]): 48.7 mg/kg; ED50 (Rattus norvegicus [11]): 64.3 mg/kg |
| CC1CN(C(=O)c2ccc(F)cc2)CCN1CCCC(O)c1ccc(F)cc1 (configuration not stated) | > 200 | > 200 | 0 | > 50 | > 50 | – |
| CC1CN(C(=O)c2ccc(F)cc2)CCN1CCCC(=O)c1ccc(F)cc1 (configuration not stated) | > 200 | > 200 | 22 | > 50 | > 50 | – |
| CC1CN(Cc2ccccc2)CCN1CCCC(=O)c1ccc(F)cc1 (configuration not stated) | > 200 | – | 30 | 28.2 | 30 | ED50 (Mus musculus [16]): > 200 mg/kg |
| O=C(c1ccc(F)cc1)C1CCN(CCCOc2ccc(F)cc2)CC1 | 4.3 | 4.9 | – | – | 1.15 | ED50 [14]: 1.82 mg/kg |
| O=C(CCCN1CCC(Cc2ccccc2)CC1)c1ccc(F)cc1 | 15.2 | – | 46 | 2.85 | 12.3 | – |
| CC1CN(Cc2ccc(F)cc2)CCN1CCCC(=O)c1ccc(F)cc1 (configuration not stated) | > 200 | > 200 | 19 | > 50 | 45 | – |
